For four compounds, inhibition and Potency results are on record in ChEMBL document CHEMBL1130060, “Novel prodrugs of cyanamide that inhibit aldehyde dehydrogenase in vivo” (1997).

The target of assay [1] is T1, Aldehyde dehydrogenase 1A1 (Rattus norvegicus) (UniProt P51647).
T1 sequence (whole entry): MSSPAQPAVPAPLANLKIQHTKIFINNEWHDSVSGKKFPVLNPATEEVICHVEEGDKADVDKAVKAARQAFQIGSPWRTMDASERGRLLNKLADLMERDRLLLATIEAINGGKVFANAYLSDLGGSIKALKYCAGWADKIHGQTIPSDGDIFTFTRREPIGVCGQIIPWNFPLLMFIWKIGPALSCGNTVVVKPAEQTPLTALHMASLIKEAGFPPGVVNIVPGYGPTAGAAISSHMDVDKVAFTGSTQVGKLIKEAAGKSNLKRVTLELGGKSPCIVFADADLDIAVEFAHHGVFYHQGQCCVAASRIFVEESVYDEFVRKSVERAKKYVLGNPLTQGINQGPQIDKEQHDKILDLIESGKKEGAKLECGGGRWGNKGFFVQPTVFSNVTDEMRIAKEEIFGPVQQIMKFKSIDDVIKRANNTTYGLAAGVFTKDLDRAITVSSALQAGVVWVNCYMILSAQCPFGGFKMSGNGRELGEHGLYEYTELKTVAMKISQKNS
The assay can be described thus: Inhibitory activity against aldehyde dehydrogenase in rats. To be noted: concentration not given here.

In assay [2] the test system is Rattus norvegicus. The assay can be described thus: Blood EtOH level in rats following the administration of the compound. Format: functional.
Assay [3] has as its system Rattus norvegicus. The assay can be described thus: Blood acetaldehyde level in rats following the administration of the compound. Format: functional.

Molecules are shown by their SMILES.

The inhibition is the drop in the measured response relative to a control, in per cent. Compound `CC(C)CSC(=N)N` gave an inhibition in assay [1] of 66%. In turn, `CCCCSC(=N)N` showed an inhibition in assay [1] of 82%. As for `C=CCSC(=N)N`, in assay [1], the inhibition was 88%. In the case of `CC(=O)NCCSC(=N)N`, the Potency was determined as 50.1 mM in the assay with Rattus norvegicus [2] and 0.067 mM with Rattus norvegicus [3].
